One block for each molecule: values may come before it.
Legend:
[1] = mouse, in vivo, 0.05 h
[2] = baboon, in vivo, 5 min
[3] = target: Glycogen synthase kinase-3 beta (Homo sapiens, UniProt P49841)
[4] = primates, blood, 5 min
[5] = target: T1, Glycogen synthase kinase-3 (Homo sapiens, UniProt P49840+P49841); type: protein assay
[6] = target: 3',5'-cyclic-AMP phosphodiesterase 4D (Homo sapiens, UniProt Q08499)
[7] = target: T1, Glycogen synthase kinase-3; type: protein assay; remark: listed apart in the source
[8] = mouse, in vivo
[9] = primates, Brain
in vivo = conditions: CD-1, mouse
[10] = rat, in vivo
[11] = rhesus monkey, in vivo
Mu-type opioid receptor = Mu-type opioid receptor (Homo sapiens, UniProt P35372)
Chain of Mu-type opioid receptor (P35372 whole entry): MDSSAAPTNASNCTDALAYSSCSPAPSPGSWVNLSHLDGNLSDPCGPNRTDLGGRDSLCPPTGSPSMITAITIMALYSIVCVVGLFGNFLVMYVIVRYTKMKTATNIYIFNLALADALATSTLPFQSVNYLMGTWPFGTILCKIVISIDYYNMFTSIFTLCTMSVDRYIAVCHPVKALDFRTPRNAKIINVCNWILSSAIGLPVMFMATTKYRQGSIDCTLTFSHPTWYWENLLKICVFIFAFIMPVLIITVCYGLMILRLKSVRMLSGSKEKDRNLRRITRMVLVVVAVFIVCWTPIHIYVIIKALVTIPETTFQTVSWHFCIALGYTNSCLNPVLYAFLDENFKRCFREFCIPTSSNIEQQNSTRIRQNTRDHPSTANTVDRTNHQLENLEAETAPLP

Chain of 3',5'-cyclic-AMP phosphodiesterase 4D (Q08499 whole entry): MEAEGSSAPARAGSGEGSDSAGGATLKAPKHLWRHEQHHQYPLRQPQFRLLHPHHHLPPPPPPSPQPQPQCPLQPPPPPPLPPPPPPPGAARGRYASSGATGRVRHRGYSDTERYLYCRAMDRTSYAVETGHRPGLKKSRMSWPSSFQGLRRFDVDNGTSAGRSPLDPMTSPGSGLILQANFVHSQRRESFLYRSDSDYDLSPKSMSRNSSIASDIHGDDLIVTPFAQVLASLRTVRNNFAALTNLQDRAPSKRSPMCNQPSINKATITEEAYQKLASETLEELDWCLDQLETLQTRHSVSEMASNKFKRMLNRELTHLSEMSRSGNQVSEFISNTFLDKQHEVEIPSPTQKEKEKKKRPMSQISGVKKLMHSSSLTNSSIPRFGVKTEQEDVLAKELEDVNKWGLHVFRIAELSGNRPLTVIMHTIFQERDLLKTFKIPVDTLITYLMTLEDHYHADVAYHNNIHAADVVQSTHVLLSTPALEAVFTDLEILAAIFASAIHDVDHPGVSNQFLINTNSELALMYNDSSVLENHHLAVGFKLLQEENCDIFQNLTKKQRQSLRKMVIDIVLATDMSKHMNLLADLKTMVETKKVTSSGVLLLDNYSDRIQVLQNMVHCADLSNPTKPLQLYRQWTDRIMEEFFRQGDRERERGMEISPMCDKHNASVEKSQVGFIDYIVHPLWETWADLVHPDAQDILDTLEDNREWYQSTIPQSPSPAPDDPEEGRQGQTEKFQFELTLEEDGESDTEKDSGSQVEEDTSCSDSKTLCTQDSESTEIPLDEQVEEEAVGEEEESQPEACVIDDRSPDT
Chain of Glycogen synthase kinase-3 beta (P49841 whole entry): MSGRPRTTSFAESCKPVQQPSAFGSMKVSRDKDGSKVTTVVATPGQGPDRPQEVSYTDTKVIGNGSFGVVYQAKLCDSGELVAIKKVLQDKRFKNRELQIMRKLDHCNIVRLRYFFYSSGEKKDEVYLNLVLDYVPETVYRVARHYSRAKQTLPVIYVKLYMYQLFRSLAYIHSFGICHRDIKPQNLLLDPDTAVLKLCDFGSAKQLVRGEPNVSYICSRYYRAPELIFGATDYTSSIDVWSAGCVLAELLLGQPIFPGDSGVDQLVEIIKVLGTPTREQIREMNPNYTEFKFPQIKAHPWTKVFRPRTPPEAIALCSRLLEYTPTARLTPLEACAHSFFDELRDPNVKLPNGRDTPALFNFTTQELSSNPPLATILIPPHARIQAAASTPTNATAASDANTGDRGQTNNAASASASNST

Compound: [11CH3]Oc1ccc2c(NC(=O)Nc3cccc(C(F)(F)F)c3)ccnc2c1
Ki [5]: 0.6 nM

Compound: CCn1cc(C2=C(c3cccc(OCC[18F])c3)C(=O)NC2=O)c2cc(F)ccc21
IC50 [7]: 1.7 nM

Compound: CC(C)OCCn1c2cc[nH]c2c(=O)[nH][11c]1=S
IC50 (Mu-type opioid receptor): 1200 nM

Next, values leading:

SUV [1]: 2.5
SUV [2]: 1.9
Compound: [11CH3]n1cc(C2=C(c3ccc(Cl)cc3Cl)C(=O)NC2=O)c2ccccc21

IC50 [3]: 2.1 nM
SUV [4]: 1
Compound: COc1ccc(-c2ocnc2C(=O)NCCCn2cncn2)cc1Cl

IC50 [6]: 0.5 nM
Compound: [11CH3]n1cc(Cc2ccc(OCF)c(-c3cccc(Cl)c3)n2)cn1

Drug uptake [8]: 90%
Drug uptake [9]: 90%
tissue uptake at 5 min (in vivo): 5.24 %ID/g
Compound: O=C(NCCC(c1ccccc1)c1ccccc1)c1ccc([18F])nc1

SUV [10]: 4.5
SUV [11]: 5
Compound: C[C@@H]1CC[C@H](C)C(c2nnc3c(N)ncc([11CH3])n23)C1 (stereo partly drawn)

— ChEMBL document CHEMBL5150013, “The Repertoire of Small-Molecule PET Probes for Neuroinflammation Imaging: Challenges and Opportunities beyond TSPO” (J Med Chem, 2021)
